Values of other authors in patent US20120076863A1, “NANOPARTICULATE STABILIZED ANTI-HYPERTENSIVE COMPOSITIONS” (Elan Pharma International Ltd., priority 2005, published 2012).
Counter-ions that a name gives are not always drawn.

Columns and labels:
[1] = active metabolite of temocapril

solubility in water | excretion route [1] | Structure (SMILES)
only slightly soluble | – | CCOC(=O)[C@H](CCc1ccccc1)N[C@H]1CS[C@H](c2cccs2)CN(CC(=O)O)C1=O [Temocapril hydrochloride, α-{(2S,6R)-6-[(1S)-1-ethoxy-carbonyl-3-phenyl-propyl]amino-5-oxo-2-(2-thienyl)perhydro-1,4-thiazepin-4yl}acetic acid hydrochloride]
– | excreted predominantly in bile | O=C(O)CN1C[C@@H](c2cccs2)SC[C@H](N[C@@H](CCc2ccccc2)C(=O)O)C1=O [temocaprilat]
